Consider 21 compounds from patent US11608335B2, “Somatostatin modulators and uses thereof” (CRINETICS PHARMACEUTICALS, INC., priority 2018, dated 2023).

For assay [1], the target named is T1, human somatostatin receptor subtype 2 (Homo sapiens, UniProt P30874).
T1 construct: expressed in transfected cells
Nature of the assay: cAMP assay for SST2R (inhibition of cAMP via human SST2 receptor). The class given is cell-based. The following applies: Table B, read-out: SST2 potency. An excerpt: cAMP Assay Protocol for SST2R:
(Changes in cAMP serve as a functional read-out for many G protein-coupled receptors.)

The target of assay [2] is human somatostatin receptor subtype 5 (Homo sapiens, UniProt P35346). Description: cAMP assay for SST5R (inhibition of cAMP via human SST5 receptor). Particulars: for Fold selectivity for SST5 vs SST2: SST5 over SST2, class symbols.
Sequence of human somatostatin receptor subtype 5 (P35346 whole entry): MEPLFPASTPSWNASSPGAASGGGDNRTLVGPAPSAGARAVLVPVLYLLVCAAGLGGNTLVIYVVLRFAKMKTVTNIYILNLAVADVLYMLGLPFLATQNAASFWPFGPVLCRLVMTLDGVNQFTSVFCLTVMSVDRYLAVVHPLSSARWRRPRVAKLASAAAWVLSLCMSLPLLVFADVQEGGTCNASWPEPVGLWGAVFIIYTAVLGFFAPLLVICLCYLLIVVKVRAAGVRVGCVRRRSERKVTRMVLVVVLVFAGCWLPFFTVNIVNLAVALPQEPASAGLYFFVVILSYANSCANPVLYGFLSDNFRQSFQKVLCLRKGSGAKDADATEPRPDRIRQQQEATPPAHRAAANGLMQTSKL
Setting [3] is: read-out: SST5 potency, inhibition of cAMP via human SST5 receptor, Table B.

SMILES strings stand for the structures. Where two headings read alike, the source gives them in different places. A value given as a limit tells only on which side of the number the result lay.

T1 sequence (P30874 whole entry): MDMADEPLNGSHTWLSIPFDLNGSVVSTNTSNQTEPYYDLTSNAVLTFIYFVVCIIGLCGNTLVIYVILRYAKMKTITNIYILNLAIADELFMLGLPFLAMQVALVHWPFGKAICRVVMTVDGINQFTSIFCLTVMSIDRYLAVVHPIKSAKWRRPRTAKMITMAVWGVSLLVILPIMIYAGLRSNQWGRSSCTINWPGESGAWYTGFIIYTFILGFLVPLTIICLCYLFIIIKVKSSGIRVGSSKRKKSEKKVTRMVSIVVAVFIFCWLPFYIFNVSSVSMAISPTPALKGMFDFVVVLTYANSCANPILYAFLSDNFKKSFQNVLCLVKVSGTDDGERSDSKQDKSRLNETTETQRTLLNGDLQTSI

Turning to `Cc1cccc2nc(-c3cncc(-c4ccnc(C#N)c4)c3N3CC[C@H](N)C3)[nH]c12` [Compound 2-128, 4-[(3S)-3-aminopyrrolidin-1-yl]-5-(4-methyl-1H-1,3-benzodiazol-2-yl)-[3,4′-bipyridine]-2′-carbonitrile], the EC50 in assay [1] is 100 to 1000 nM; in assay [2], less than 10 nM; in assay [2] (setting [3]), less than 10 nM. The “Fold selectivity for SST5 vs SST2” value in assay [2] was “+++ (+++=≥500)”.

On to `N#Cc1cc(-c2cncc(-c3nc4ccc(F)c(F)c4[nH]3)c2N2CC[C@H](N)C2)ccc1F` [Compound 2-52, 5-{4-[(3S)-3-aminopyrrolidin-1-yl]-5-(4,5-difluoro-1H-1,3-benzodiazol-2-yl)pyridin-3-yl}-2-fluorobenzonitrile], for which the EC50 in assay [1] is 100 to 1000 nM; in assay [2] it was less than 10 nM; in assay [2] (setting [3]) it was less than 10 nM. In addition, in assay [2], the “Fold selectivity for SST5 vs SST2” value was “+++ (+++=≥500)”.

Turning to `Cc1cc(F)cc(-c2cncc(-c3nc4ccc(Cl)cc4[nH]3)c2N2CC[C@H](N)C2)c1` [Compound 2-196, (3S)-1-[3-(6-chloro-1H-1,3-benzodiazol-2-yl)-5-(3-fluoro-5-methylphenyl)pyridin-4-yl]pyrrolidin-3-amine], the EC50 was in the range of 100 to 1000 nM in assay [1], 10 to 100 nM in assay [2] and 10 to 100 nM in assay [2] (setting [3]). The “Fold selectivity for SST5 vs SST2” value in assay [2] is on record as “+ (+=10 to 99)”.

As to `Cc1cc(F)cc(-c2cncc(-c3nc4cc(C)ccc4[nH]3)c2N2CC(CN)C2)c1` [Compound 1-10, 1-{1-[3-(3-fluoro-5-methylphenyl)-5-(5-methyl-1H-1,3-benzodiazol-2-yl)pyridin-4-yl]azetidin-3-yl}methanamine], the values for the EC50 in assay [1], in assay [2] and in assay [2] (setting [3]) were greater than 1000 nM, less than 10 nM and less than 10 nM, respectively. For the same compound, the “Fold selectivity for SST5 vs SST2” value in assay [2] is reported as “+++ (+++=≥500)”.

As to `CC1(N)CCN(c2c(-c3cc(F)cc(C(N)=O)c3)cncc2-c2nc3cccc(F)c3[nH]2)C1` (stereo not drawn) [Compound 2-20, 3-[4-(3-amino-3-methylpyrrolidin-1-yl)-5-(4-fluoro-1H-1,3-benzodiazol-2-yl)pyridin-3-yl]-5-fluorobenzamide], the EC50 in assay [1] is 100 to 1000 nM; in assay [2], less than 10 nM; in assay [2] (setting [3]), less than 10 nM. For the same compound, the “Fold selectivity for SST5 vs SST2” value in assay [2] is “+++ (+++=≥500)”.

In the case of `Cc1ccnc2[nH]c(-c3cncc(-c4cccc(C#N)c4)c3N3CC[C@](C)(N)C3)nc12` [Compound 2-155, 3-{4-[(3S)-3-amino-3-methylpyrrolidin-1-yl]-5-{7-methyl-1H-imidazo[4,5-b]pyridin-2-yl}pyridin-3-yl}benzonitrile], the results for the EC50 in assay [1], in assay [2] and in assay [2] (setting [3]) were 100 to 1000 nM, less than 10 nM and less than 10 nM, respectively. The “Fold selectivity for SST5 vs SST2” value in assay [2] is on record as “++ (++=100 to 499)”.

Take `CC1(N)CCN(c2c(-c3cc(F)cc(C#N)c3)cncc2-c2nc3cccc(F)c3[nH]2)C1` (stereo not drawn) [Compound 2-6, 3-[4-(3-amino-3-methylpyrrolidin-1-yl)-5-(4-fluoro-1H-1,3-benzodiazol-2-yl)pyridin-3-yl]-5-fluorobenzonitrile]: the EC50 in assay [1] is 100 to 1000 nM; in assay [2], less than 10 nM; in assay [2] (setting [3]), less than 10 nM. The “Fold selectivity for SST5 vs SST2” value in assay [2] is listed as “+++ (+++=≥500)”.

As for `N#Cc1cc(F)cc(-c2cncc(-c3nc4ccccc4[nH]3)c2N2CC[C@H](N)C2)c1` [Compound 2-109, 3-{4-[(3S)-3-aminopyrrolidin-1-yl]-5-(1H-1,3-benzodiazol-2-yl)pyridin-3-yl}-5-fluorobenzonitrile], the EC50 in assay [1] was 100 to 1000 nM; in assay [2], less than 10 nM; in assay [2] (setting [3]) it was less than 10 nM. Besides, in assay [2], the “Fold selectivity for SST5 vs SST2” value is recorded as “++ (++=100 to 499)”.

On to `Cc1cccc2nc(-c3cncc(-c4ccc(F)c(C(N)=O)c4)c3N3CCC(C)(N)C3)[nH]c12` (stereo not drawn) [Compound 2-124, 5-[4-(3-amino-3-methylpyrrolidin-1-yl)-5-(4-methyl-1H-1,3-benzodiazol-2-yl)pyridin-3-yl]-2-fluorobenzamide], for which the EC50 in assay [1] was 100 to 1000 nM; in assay [2], less than 10 nM; in assay [2] (setting [3]), less than 10 nM. The “Fold selectivity for SST5 vs SST2” value in assay [2] is given as “+++ (+++=≥500)”.

Consider `Cc1cccc2nc(-c3cncc(-c4cc(F)cc(C#N)c4)c3N3CC[C@@](N)(CO)C3)[nH]c12` [Compound 2-135, 3-{4-[(3S)-3-amino-3-(hydroxymethyl)pyrrolidin-1-yl]-5-(4-methyl-1H-1,3-benzodiazol-2-yl)pyridin-3-yl}-5-fluorobenzonitrile], for which the EC50 in assay [1] is 10 to 100 nM; in assay [2] it was less than 10 nM; in assay [2] (setting [3]) it was less than 10 nM. In addition, the “Fold selectivity for SST5 vs SST2” value in assay [2] is on record as “++ (++=100 to 499)”.

On to `CC1(N)CCN(c2c(-c3cccc(S(C)(=O)=O)c3)cncc2-c2nc3cccc(F)c3[nH]2)C1` (stereo not drawn) [Compound 2-21, 1-[3-(4-fluoro-1H-1,3-benzodiazol-2-yl)-5-(3-methanesulfonylphenyl)pyridin-4-yl]-3-methylpyrrolidin-3-amine], for which the EC50 in assay [1] was greater than 1000 nM; in assay [2], less than 10 nM; in assay [2] (setting [3]) it was less than 10 nM. Also, the “Fold selectivity for SST5 vs SST2” value in assay [2] was “+++ (+++=≥500)”.

On to `CC1(N)CCN(c2c(-c3ccc4c(c3)OCC4)cncc2-c2nc3cccc(F)c3[nH]2)C1` (stereo not drawn) [Compound 2-22, 1-[3-(2,3-dihydro-1-benzofuran-6-yl)-5-(4-fluoro-1H-1,3-benzodiazol-2-yl)pyridin-4-yl]-3-methylpyrrolidin-3-amine], for which the EC50 in assay [1] is 100 to 1000 nM; in assay [2] it was less than 10 nM; in assay [2] (setting [3]), less than 10 nM. Moreover, the “Fold selectivity for SST5 vs SST2” value in assay [2] is reported as “++ (++=100 to 499)”.

With `CC1(N)CCN(c2c(-c3cccc(C(N)=O)c3)cncc2-c2nc3c(F)cccc3[nH]2)C1` (stereo not drawn) [Compound 2-18, 3-[4-(3-amino-3-methylpyrrolidin-1-yl)-5-(4-fluoro-1H-1,3-benzodiazol-2-yl)pyridin-3-yl]benzamide], the EC50 in assay [1] is greater than 1000 nM; in assay [2], less than 10 nM; in assay [2] (setting [3]), less than 10 nM. For the same compound, the “Fold selectivity for SST5 vs SST2” value in assay [2] is “+++ (+++=≥500)”.

Regarding `Cc1cccc2nc(-c3cncc(-c4ccnc(C#N)c4)c3N3CCC(C)(N)C3)[nH]c12` (stereo not drawn) [Compound 2-123, 4-(3-amino-3-methylpyrrolidin-1-yl)-5-(4-methyl-1H-1,3-benzodiazol-2-yl)-[3,4′-bipyridine]-2′-carbonitrile], the EC50 is 10 to 100 nM in assay [1], less than 10 nM in assay [2] and less than 10 nM in assay [2] (setting [3]). Besides, the “Fold selectivity for SST5 vs SST2” value in assay [2] was “+++ (+++=≥500)”.

With `CCn1c(-c2cncc(-c3cc(F)cc(C#N)c3)c2N2CC[C@H](N)C2)nc2c(F)cccc21` [Compound 2-144, 3-{4-[(3S)-3-aminopyrrolidin-1-yl]-5-(1-ethyl-4-fluoro-1H-1,3-benzodiazol-2-yl)pyridin-3-yl}-5-fluorobenzonitrile], the EC50 is greater than 1000 nM in assay [1], less than 10 nM in assay [2] and less than 10 nM in assay [2] (setting [3]). In assay [2], the “Fold selectivity for SST5 vs SST2” value is on record as “+++ (+++=≥500)”.

With `Cc1cccc2nc(-c3cncc(-c4ccc(F)c(OC(F)(F)F)c4)c3N3CC[C@H](N)C3)[nH]c12` [Compound 2-141, (3S)-1-{3-[4-fluoro-3-(trifluoromethoxy)phenyl]-5-(4-methyl-1H-1,3-benzodiazol-2-yl)pyridin-4-yl}pyrrolidin-3-amine], the EC50 in assay [1] was 100 to 1000 nM; in assay [2], less than 10 nM; in assay [2] (setting [3]), less than 10 nM. Further, the “Fold selectivity for SST5 vs SST2” value in assay [2] was “++ (++=100 to 499)”.

On to `N#Cc1cc(F)cc(-c2cncc(-c3nc4ccc(Cl)cc4[nH]3)c2N2CC[C@H](N)C2)c1` [Compound 2-198, 3-{4-[(3S)-3-aminopyrrolidin-1-yl]-5-(6-chloro-1H-1,3-benzodiazol-2-yl)pyridin-3-yl}-5-fluorobenzonitrile], for which the EC50 is greater than 1000 nM in assay [1], less than 10 nM in assay [2] and less than 10 nM in assay [2] (setting [3]). Also, the “Fold selectivity for SST5 vs SST2” value in assay [2] is recorded as “++ (++=100 to 499)”.

Take `Cn1c(-c2cncc(-c3cccc(C#N)c3)c2N2CC[C@H](N)C2)nc2cccc(Cl)c21` [Compound 2-76, 3-{4-[(3S)-3-aminopyrrolidin-1-yl]-5-(7-chloro-1-methyl-1H-1,3-benzodiazol-2-yl)pyridin-3-yl}benzonitrile]: the EC50 in assay [1] was 100 to 1000 nM; in assay [2] it was less than 10 nM; in assay [2] (setting [3]) it was less than 10 nM. Besides, the “Fold selectivity for SST5 vs SST2” value in assay [2] is reported as “+++ (+++=≥500)”.

With `Cc1cc(F)cc(-c2cncc(-c3nc4cccc(C#N)c4[nH]3)c2N2CC(CN)C2)c1` [Compound 1-5, 2-{4-[3-(aminomethyl)azetidin-1-yl]-5-(3-fluoro-5-methylphenyl)pyridin-3-yl}-1H-1,3-benzodiazole-4-carbonitrile], the EC50 was greater than 1000 nM in assay [1], 10 to 100 nM in assay [2] and 10 to 100 nM in assay [2] (setting [3]). In addition, in assay [2], the “Fold selectivity for SST5 vs SST2” value is given as “+++ (+++=≥500)”.

For the compound `CCn1c(-c2cncc(-c3ccc(F)c(C#N)c3)c2N2CC[C@H](N)C2)nc2c(F)cccc21` [Compound 2-142, 5-{4-[(3S)-3-aminopyrrolidin-1-yl]-5-(1-ethyl-4-fluoro-1H-1,3-benzodiazol-2-yl)pyridin-3-yl}-2-fluorobenzonitrile], the EC50 in assay [1] was greater than 1000 nM; in assay [2], less than 10 nM; in assay [2] (setting [3]) it was less than 10 nM. For the same compound, the “Fold selectivity for SST5 vs SST2” value in assay [2] is given as “+++ (+++=≥500)”.

As to `Cc1ccnc2nc(-c3cncc(-c4cc(F)c(F)c(C#N)c4)c3N3CCC(C)(N)C3)[nH]c12` (stereo not drawn) [Compound 2-140, 5-[4-(3-amino-3-methylpyrrolidin-1-yl)-5-{7-methyl-1H-imidazo[4,5-b]pyridin-2-yl}pyridin-3-yl]-2,3-difluorobenzonitrile], the EC50 in assay [1] was 10 to 100 nM; in assay [2] it was less than 10 nM; in assay [2] (setting [3]) it was less than 10 nM. For the same compound, in assay [2], the “Fold selectivity for SST5 vs SST2” value is listed as “++ (++=100 to 499)”.
